Where no end group is shown, it is not given here.
Columns and labels:
HLA-A*0301 = HLA-A*0301 (Homo sapiens, UniProt P04439); assay: competitive MHC allele binding assay, A*0301
HLA-A*1101 = HLA-A*1101 (Homo sapiens, UniProt P04439, A114D/D185E/E176A/F33Y/L180Q/S129P/T187R); assay: competitive MHC allele binding assay, A*1101
HLA-A*3001 = HLA-A*3001 (Homo sapiens, UniProt P04439, D140H/D185E/E176W/F33S/G80R/H175R/K168Q/R138E/R41S); assay: competitive MHC allele binding assay, A*3001
HLA-A*3101 = HLA-A*3101 (Homo sapiens, UniProt P04439, A270S/D185E/E176V/E277Q/F33T/G231S/G80R/H175R/I121M/I218V/I322F/K168Q/L300P/L318F/M331R/P217A/Q94H/R138Q/T323A/T345S/T97I/V358M); assay: competitive MHC allele binding assay, A*3101
HLA-A*3301 = HLA-A*3301 (Homo sapiens, UniProt P04439, A270S/D185E/E176V/E277Q/E87N/F33T/G231S/H175R/I121M/I218V/I322F/K168Q/K210R/L300P/L318F/M331R/P217A/Q86R/Q94H/R138Q/T323A/T345S/T97I/V358M/Y195H); assay: competitive MHC allele binding assay, A*3301
HLA-A*6801 = HLA-A*6801 (Homo sapiens, UniProt P04439, A269V/D185E/E176V/E277Q/E87N/F33Y/G231S/I121M/I166T/I218V/L180W/L300P/L318F/N151K/P208A/P217A/Q86R/R169H/T345S); assay: competitive MHC allele binding assay, A*6801

Sequence	IC50 (HLA-A*0301)	IC50 (HLA-A*1101)	IC50 (HLA-A*3001)	IC50 (HLA-A*3101)	IC50 (HLA-A*3301)	IC50 (HLA-A*6801)
KLGGGQYGK [E255K-A]	208 nM	1070 nM	27.8 µM	31.8 µM	> 70000 nM	57.1 µM
EVYEGVWKK [E225K-B WT]	1070 nM	63 nM	> 70 µM	> 70 µM	60 nM	0.01 µM
